# Reference: patent publication US7705191B2, “Hydrofluoroalkyl phenols having anesthetic properties” (University of Iowa Research Foundation, priority 2006, dated 2010)
# Experiments:
# rat = assay: Loss of righting reflex / anesthesia after intravenous injection in rats; type: in vivo; conditions: for onset of loss of righting reflex: two rats; for duration of anesthesia / loss of righting reflex: 10 mg/kg i.v. bolus
# Procedure: For Examples 2 and 3, compounds were administered into the […] of the rat. The vehicle was 12-16% Cremophor EL dissolved in saline. The purity of each compound was approximately 96%.
# Compound 1 was synthesized as described in Example 1. Approximately 15 mg/ml of the suspension were injected into the lateral tail vein of two rats (weight 300-320 g). […] The loss of righting reflex lasted for about 4 to 5 minutes. Upon awaking, the animals became active (e.g., started exploring behavior, walking, chewing, etc.).
# Compound 3 (prepared as in Example 1) was formulated in Cremophor EL at a concentration of 10 mg/ml. Compound 3 was injected into the lateral tail vein of two rats at a dose of 10 mg/kg.
# GABA receptors = assay: In vitro assay of direct activation of GABA receptors; type: cell-based; conditions: FIG. 2
# Source text: FIG. 2 is a graph showing the direct activation of GABA receptors by phenolic compounds.
# Propofol and analogs are known to activate GABA receptors (see, e.g., Trapani et al., J. Med. Chem. 1998, 41, 1846-1854, incorporated herein by reference). While the relationship between GABA activation and anesthetic activity is not completely clear, it is believed that the ability of a compound to directly activate GABA receptors may be related to the anesthetic, sedative, and/or anxiolytic activity of the compound. Compounds of the invention can be tested in vitro electrophysiological assays to determine the ability of the compound to activate GABA receptors.
# Certain compounds were tested in an in vitro assay to determine whether the compounds were capable of direct activation of GABA receptors.
# [1] = lateral tail vein injection, approximately 15 mg/ml suspension
structure (smiles),measurement,setting,value
"CC(C)c1cccc(CC(F)(F)F)c1O [Compound 1, 2-isopropyl-6-(2,2,2-trifluoroethyl) phenol]",response to tail pinching during loss of righting reflex,rat; [1],did not respond to tail pinching
same,shaking or tremors during induction or recovery,rat; [1],did not exhibit shaking or tremors
same,onset of loss of righting reflex,"rat; lateral tail vein injection, approximately 15 mg/ml suspension, Cremophor EL/saline vehicle",immediately lost their righting reflex
same,direct activation of GABA receptors,GABA receptors,found to have activity
"CC(C)c1cccc(C(C)C(F)(F)F)c1O (stereo not shown) [Compound 3, 2-isopropyl-6-(1-trifluoromethyl)ethyl phenol]",duration of anesthesia / loss of righting reflex,rat,approximately 10 min
same,potency relative to propofol,"rat; 10 mg/kg, inferred from duration of loss of righting reflex",more potent than propofol
same,onset of loss of righting reflex,"rat; lateral tail vein injection, 10 mg/kg, 10 mg/ml in Cremophor EL",immediately lost their righting reflex
same,direct activation of GABA receptors,GABA receptors,found to have activity
"CC(C)c1cc(C(O)C(F)(F)F)cc(C(C)C)c1O (stereo not shown) [MB003, 2,6-Diisopropyl-4-(2,2,2-trifluoro-1-hydroxy-ethyl)-phenol]",direct activation of GABA receptors,GABA receptors,found to have activity
"CC(C)c1cccc(C(C)C)c1O [Propofol, 2,6-diisopropylphenol, reference compound]",duration of anesthesia / loss of righting reflex,rat,7.5 min
